Test results: the supplement of paper PMC11061612

Columns and labels:
Assay in all cases: combination Emax (second highest fraction inhibited in the dose matrix, 72 h); higher = more inhibition; extreme values may be limits of the assay
[1] = tested on: NCI-H810 (Non-Small Cell Lung Carcinoma)
In short: (§1)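 Cell lines grown in DMEM/F12 or RPMI with 10% FBS were plated in 1536-well plates and held 24 hours at 37°C, 5% CO2 before 72 hours of exposure to two-drug dose matrices, with DMSO typically at 0.2%. CellTiter-Glo 2.0 luminescence gave viability, which was converted to inhibition. Vehicle wells were set to 0 and blank wells to 1. Combination Emax is the second-highest inhibition in the matrix, and Bliss excess is the observed combination effect minus the expected EA + EB − EA·EB, where EA and EB are the single-agent effects.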

[2] = tested on: SJRH30 (Rhabdomyosarcoma)
In short: as §1

[3] = tested on: BALL-1 (B-Lymphoblastic Leukemia)
In short: as §1

786-0 (Kidney Carcinoma) = tested on: 786-0 (Kidney Carcinoma)
In short: as §1

[4] = tested on: EB-3 (Burkitt's Lymphoma)
In short: as §1

[5] = tested on: HTC-C3 (Thyroid Gland Carcinoma)
In short: as §1

[6] = tested on: Caov-3 (Ovarian Carcinoma)
In short: as §1

[7] = tested on: KYSE-70 (Esophageal Squamous Cell Carcinoma)
In short: as §1

[8] = tested on: NCI-H1563 (Lung Adenocarcinoma)
In short: as §1

[9] = tested on: SNU-175 (Colorectal Carcinoma)
In short: as §1

[10] = tested on: LAMA-84 (Chronic Myelogenous Leukemia)
In short: as §1

[11] = tested on: RPMI-8866 (Chronic Myelogenous Leukemia)
In short: as §1

[12] = tested on: JHH-1 (Hepatocellular Carcinoma)
In short: as §1

[13] = tested on: RMG-I (Ovarian Carcinoma)
In short: as §1

[14] = tested on: PANC-02-03 (Pancreatic Carcinoma)
In short: as §1

[15] = tested on: AN3-CA (Endometrial Carcinoma)
In short: as §1

[16] = tested on: LOUCY (T-Lymphoblastic Leukemia)
In short: as §1

[17] = tested on: RERF-LC-KJ (Lung Adenocarcinoma)
In short: as §1

[18] = tested on: Becker (Low Grade Glioma)
In short: as §1

[19] = tested on: Calu-6 (Non-Small Cell Lung Carcinoma)
In short: as §1

Structure (SMILES) | combination Emax [1] | combination Emax [2] | combination Emax [3] | combination Emax (786-0 (Kidney Carcinoma)) | combination Emax [4] | combination Emax [5] | combination Emax [6] | combination Emax [7] | combination Emax [8] | combination Emax [9] | combination Emax [10] | combination Emax [11] | combination Emax [12] | combination Emax [13] | combination Emax [14] | combination Emax [15] | combination Emax [16] | combination Emax [17] | combination Emax [18] | combination Emax [19]
COc1cccc(OCCCN)c1-c1cc(Nc2cnc(C#N)cn2)n[nH]1 [Prexasertib] + O=C(c1cc(Cc2n[nH]c(=O)c3ccccc23)ccc1F)N1CCN(C(=O)C2CC2)CC1 [Olaparib] (first compound max 1 µM, 7x7, partner max 10 µM) | 0.896 | 0.868 | 0.994 | 0.869 | 0.694 | 0.751 | 0.855 | 0.626 | 0.27 | 0.527 | 0.973 | 1 | 0.582 | 0.515 | 0.502 | 0.81 | 1 | 0.203 | 0.704 | 0.698
CC1(C)CCC(CN2CCN(c3ccc(C(=O)NS(=O)(=O)c4ccc(NCC5CCOCC5)c([N+](=O)[O-])c4)c(Oc4cnc5[nH]ccc5c4)c3)CC2)=C(c2ccc(Cl)cc2)C1 [Venetoclax] + C=CCn1c(=O)c2cnc(Nc3ccc(N4CCN(C)CC4)cc3)nc2n1-c1cccc(C(C)(C)O)n1 [AZD1775] (first compound max 1 µM, partner max 1 µM) | 0.781 | 0.9 | 1 | 0.582 | 0.674 | 0.341 | 0.801 | 0.604 | 0.371 | 0.553 | 0.964 | 0.951 | 0.578 | 0.57 | 0.494 | 0.446 | 1 | 0.283 | 0.76 | 0.787
Cc1c2c(nn1C)CSCc1cc(n(C)n1)CSc1cc(c3ccccc3c1)OCCCc1c(C(=O)O)n(C)c3c-2c(Cl)ccc13 [AZD5991] + C=CCn1c(=O)c2cnc(Nc3ccc(N4CCN(C)CC4)cc3)nc2n1-c1cccc(C(C)(C)O)n1 [AZD1775] (first compound max 1 µM, partner max 1 µM) | 0.949 | 0.912 | 1 | 0.804 | 0.732 | 0.454 | 0.775 | 0.655 | 0.595 | 0.868 | 0.968 | 0.978 | 0.721 | 0.375 | 0.594 | 0.637 | 1 | 0.563 | 0.224 | 0.77
CN(CCO)CC[C@H](CSc1ccccc1)Nc1ccc(S(=O)(=O)NC(=O)c2ccc(N3CCC([C@@H](O)c4ccccc4-c4ccc(Cl)cc4)CC3)cc2)cc1S(=O)(=O)C(F)(F)F [AZD4320] + C=CCn1c(=O)c2cnc(Nc3ccc(N4CCN(C)CC4)cc3)nc2n1-c1cccc(C(C)(C)O)n1 [AZD1775] (first compound max 1 µM, partner max 1 µM) | 0.954 | 0.93 | 1 | 0.715 | 0.681 | 0.742 | 0.979 | 0.67 | 0.26 | 0.717 | 1 | 1 | 0.918 | 0.907 | 0.585 | 0.468 | 1 | 0.272 | 0.261 | 0.928
CN(CCO)CC[C@H](CSc1ccccc1)Nc1ccc(S(=O)(=O)NC(=O)c2ccc(N3CCC([C@@H](O)c4ccccc4-c4ccc(Cl)cc4)CC3)cc2)cc1S(=O)(=O)C(F)(F)F [AZD4320] + Cc1cc2ncnn2cc1Nc1ncc2c(n1)n(C1CCOCC1)c(=O)n2C [AZD7648] (first compound max 1 µM, 7x7, partner max 10 µM) | 0.43 | 0.147 | 1 | 0.138 | 0.334 | 0.342 | 0.551 | 0.132 | 0.35 | 0.446 | 0.752 | 0.665 | 0.382 | 0.826 | 0.109 | 0.445 | 1 | 0.288 | 0.124 | 0.59
Cc1c2c(nn1C)CSCc1cc(n(C)n1)CSc1cc(c3ccccc3c1)OCCCc1c(C(=O)O)n(C)c3c-2c(Cl)ccc13 [AZD5991] + CN(C)CCCOc1ccc(-c2ccc3ncc4c(c3c2)n(C2CCOCC2)c(=O)n4C)cn1 [AZD0156] (first compound max 1 µM, 7x7, partner max 1 µM) | 0.474 | 0.544 | 0.606 | 0.251 | 0.371 | 0.179 | 0.39 | 0.156 | 0.668 | 0.458 | 0.177 | 0.668 | 0.48 | 0.293 | 0.203 | 0.404 | 0.638 | 0.589 | 0.141 | 0.282
CCN(CCO)CCCOc1ccc2c(Nc3cc(CC(=O)Nc4cccc(F)c4)[nH]n3)ncnc2c1 [AZD2811] + C[C@@H]1COCCN1C2=NC(=NC(=C2)C3(CC3)[S@](=N)(=O)C)C4=C5C=CNC5=NC=C4 [AZD6738] (first compound max 1 µM, 7x7, partner max 10 µM) | 0.738 | 0.839 | 0.984 | 0.714 | 0.644 | 0.858 | 0.841 | 0.313 | 0.206 | 0.578 | 0.97 | 0.955 | 0.504 | 0.497 | 0.62 | 0.48 | 1 | 0.319 | 0.586 | 0.767
Cc1c2c(nn1C)CSCc1cc(n(C)n1)CSc1cc(c3ccccc3c1)OCCCc1c(C(=O)O)n(C)c3c-2c(Cl)ccc13 [AZD5991] + C[C@@H]1COCCN1C2=NC(=NC(=C2)C3(CC3)[S@](=N)(=O)C)C4=C5C=CNC5=NC=C4 [AZD6738] (first compound max 1 µM, 7x7, partner max 10 µM) | 0.904 | 0.939 | 1 | 0.748 | 0.604 | 0.686 | 0.763 | 0.379 | 0.774 | 0.862 | 0.966 | 0.973 | 0.686 | 0.544 | 0.528 | 0.823 | 0.993 | 0.465 | 0.632 | 0.822
C[C@@H]1COCCN1c1cc(C2([S@](C)(=N)=O)CC2)nc(-c2ccnc3[nH]ccc23)n1 [AZD6738] + O=C(c1cc(Cc2n[nH]c(=O)c3ccccc23)ccc1F)N1CCN(C(=O)C2CC2)CC1 [Olaparib] (first compound max 10 µM, 7x7, partner max 10 µM) | 0.766 | 0.619 | 0.983 | 0.679 | 0.617 | 0.83 | 0.699 | 0.45 | 0.223 | 0.532 | 0.961 | 0.982 | 0.458 | 0.414 | 0.692 | 0.577 | 0.974 | 0.326 | 0.601 | 0.684
COc1cccc(OCCCN)c1-c1cc(Nc2cnc(C#N)cn2)n[nH]1 [Prexasertib] + C=CCn1c(=O)c2cnc(Nc3ccc(N4CCN(C)CC4)cc3)nc2n1-c1cccc(C(C)(C)O)n1 [AZD1775] (first compound max 1 µM, partner max 1 µM) | 0.981 | 0.97 | 0.997 | 0.957 | 0.818 | 0.911 | 0.798 | 0.777 | 0.482 | 0.744 | 0.992 | 1 | 0.656 | 0.727 | 0.662 | 0.954 | 1 | 0.435 | 0.733 | 0.806
Cc1c2c(nn1C)CSCc1cc(n(C)n1)CSc1cc(c3ccccc3c1)OCCCc1c(C(=O)O)n(C)c3c-2c(Cl)ccc13 [AZD5991] + CC1(C)CCC(CN2CCN(c3ccc(C(=O)NS(=O)(=O)c4ccc(NCC5CCOCC5)c([N+](=O)[O-])c4)c(Oc4cnc5[nH]ccc5c4)c3)CC2)=C(c2ccc(Cl)cc2)C1 [Venetoclax] (first compound max 1 µM, 7x7, partner max 1 µM) | 0.533 | 0.588 | 1 | 0.199 | 0.145 | 0.147 | 0.453 | 0.103 | 0.768 | 0.926 | 0.183 | 0.438 | 0.963 | 0.421 | 0.138 | 0.835 | 1 | 0.444 | 0.124 | 0.215
COc1cc2c(cc1OCCCCCOc1cc3c(cc1OC)C(=O)N1C=C(C)C[C@H]1C=N3)N=C[C@@H]1CC(C)=CN1C2=O [SG3199] + O=C(c1cc(Cc2n[nH]c(=O)c3ccccc23)ccc1F)N1CCN(C(=O)C2CC2)CC1 [Olaparib] (first compound max 0.001 µM, 7x7, partner max 10 µM) | 0.131 | 0.122 | 0.845 | 0.0509 | 0.0944 | 0.246 | 0.202 | 0.0678 | 0.173 | 0.112 | 0.226 | 0.263 | 0.136 | 0.114 | 0.0277 | 0.138 | 0.12 | 0.148 | 0.0512 | 0.186
